Measurements from patent US20020173468A1, “MODIFIED CYTOSTATIC AGENTS” (priority 1996, published 2002).
pIC50: −log10 of the molar value. Structures can show the parent of a compound that is named as a salt.

How the values were obtained:
Format in all cases: cell-based
[1] = system: SW 480 human colonic tumour cell line; assay: Growth inhibition test (MTT) for cytotoxic properties, SW 480; details: SW 480 cells
Protocol: (§1) 1. Growth Inhibition Test for the Determination of Cytotoxic Properties
(§2) They were then trypsinized and taken up in RPMI plus 10% FCS to give a cell count of 50,000 cells/ml. 100 μl of cell suspension/well were added to a 96 microwell plate and incubated for 1 day at 37° C. in a CO2 incubator. A further 100 μl of RPMI medium and 1 μl of DMSO were then added with the test substances. The growth was checked after day 3 and day 6. To do this, 40 μl of MTT solution (3-(4,5-dimethylthiazol-2-yl)-2,5-diphenyl-tetrazolin bromide) were added to each microwell at a starting concentration of 5 mg/ml of H2O. Incubation was carried out at 37° C. for 5 hours in the CO2 incubator. The medium was then aspirated and 100 μl of i-propanol/well were added. After shaking for 30 min with 100 μl of H2O, the extinction was measured at 540 nm using a Titertek Multiskan MCC/340 (flow).
(§3) The cytotoxic action is indicated in Table 1 as an IC50 value in each case for the SW 480 and HT 29 and B16F10 cell lines: […]

[2] = system: HT 29 human colonic tumour cell line; assay: Growth inhibition test (MTT) for cytotoxic properties, HT 29; details: HT 29 cells
Protocol: as §1, §2, §3

[3] = system: B16F10 mouse melanoma cell line; assay: Growth inhibition test (MTT) for cytotoxic properties, B16F10; details: B16F10 cells
Protocol: as §1, §2, §3

[4] = system: mouse bone marrow stem cells; assay: Inhibition of the CSF-induced proliferation of mouse bone marrow stem cells (colony formation); details: recombinant murine GM-CSF, 7 days; for IC50: Mus musculus, 168 h
Protocol: 2. Haematopoietic Activity of Conjugates in Comparison with the Basic Active Compound
Bone marrow cells were rinsed from mouse femurs. 10^5 cells were incubated in McCoy 5A medium (0.3% agar) together with recombinant murine GM-CSF (Genzyme; stem cell colony formation) and the substances (10^−4 to 100 μg/ml) at 37° C. and 7% CO2. 7 days later, the colonies ([…]50 cells) and clusters (17-50 cells) were counted.

| Compound | pIC50 [1] | pIC50 [2] | pIC50 [3] | IC50, inhibition of the CSF-induced proliferation of mouse bone marrow stem cells [4] [ng/mL] | IC50 [4] [ng/mL] |
| --- | --- | --- | --- | --- | --- |
| CCC1(OC(=O)C(C)NC(=O)C(CCCCNC(=S)Nc2ccc(O)cc2)NC(=S)Nc2ccc(O)cc2)C(=O)OCc2c1cc1n(c2=O)Cc2cc3ccccc3nc2-1 (stereo not drawn) [4.9), 20-O-[N^α,N^ε-bis-(4-Hydroxy-phenylamino-thiocarbonyl)-lysyl-alanyl]-camptothecin] | 7.70 | 7.82 | 6.70 | 22 | – |
| N[C@@H]1C=CC[C@@H]2CN(c3c(F)cc4c(=O)c(C(=O)O)cn(C5CC5)c4c3Cl)C[C@@H]21 (racemic) [Quinolone-a, 7-[(3aRS, 4RS, 7aSR)-4-amino-1,3,3a,4,7,7a-hexahydro-iso-indol-2-yl]-8-chloro-1-cyclopropyl-6-fluoro-1,4-dihydro-4-oxo-3-quinolinecarboxylic acid, reference compound] | – | – | – | – | 0.2 |
| Cl.NCCCCC(NC(=S)Nc1ccc(O)cc1)C(=O)NC1C=CCC2CN(c3c(F)cc4c(=O)c(C(=O)O)cn(C5CC5)c4c3Cl)CC21 (racemic) [2.4), N-[N^α-(4-Hydroxy-phenylamino-thiocarbonyl)-lysyl]-quinolone-a, hydrochloride] | 6.10 | 6.05 | 6.00 | 60.0 | – |
| CC[C@@]1(O)C(=O)OCc2c1cc1n(c2=O)Cc2cc3ccccc3nc2-1 [Camptothecin, 20(S)-Camptothecin, reference compound] | – | – | – | – | 0.4 |
| CCC1(OC(=O)C(CC(C)C)NC(=O)C(CCCCN)NC(=S)Nc2ccc(O)cc2)C(=O)OCc2c1cc1n(c2=O)Cc2cc3ccccc3nc2-1 (stereo not drawn) [4.2), 20-O-[N^α-(4-Hydroxy-phenylamino-thiocarbonyl)-lysyl-leucyl]-camptothecin, hydrochloride] | 7.15 | 7.22 | 6.52 | – | – |
| CC[C@@]1(OC(=O)C(NC(=O)C(CCCCN)NC(=S)Nc2ccc(C(=O)O)cc2)C(C)C)C(=O)OCc2c1cc1n(c2=O)Cc2cc3ccccc3nc2-1 (stereo partly drawn) [4.5), 20-O-[N^α-(4-Carboxy-phenylamino-thiocarbonyl)-lysyl-valyl]-camptothecin, hydrochloride] | 6.52 | 6.70 | 6.10 | – | – |
| CC[C@@]1(OC(=O)C(NC(=O)C(CCCCN)NC(=S)Nc2ccc(Cl)cc2)C(C)C)C(=O)OCc2c1cc1n(c2=O)Cc2cc3ccccc3nc2-1 (stereo partly drawn) [4.6), 20-O-[N^α-(4-Chloro-phenylamino-thiocarbonyl)-lysyl-valyl]-camptothecin, hydrochloride] | 6.70 | 6.82 | 6.30 | – | – |
| COc1cccc2c1C(=O)c1c(O)c3c(c(O)c1C2=O)C[C@@](O)(C(=O)CO)C[C@@H]3O[C@H]1C[C@H](NC(=O)C(C)NC(=O)C(CCCCN)NC(=S)Nc2ccc(O)cc2)[C@H](O)[C@H](C)O1 (stereo partly drawn) [3), N-[N^α-(4-Hydroxy-phenylamino-thiocarbonyl)-lysyl-alanyl]-doxorubicin] | 5.52 | 5.70 | 6.00 | – | – |
| CN(C(=S)NC(CCCCN)C(=O)NC1C=CCC2CN(c3c(F)cc4c(=O)c(C(=O)O)cn(C5CC5)c4c3Cl)CC21)c1ccccc1 (racemic) [2.10), N-[N^α-(Phenyl-methyl-amino-thiocarbonyl)-lysyl]-quinolone-a] | 5.70 | 5.70 | 6.40 | – | – |
| CCC1(OC(=O)[C@H](Cc2ccccc2)NC(=O)[C@H](CCCCNC(=S)Nc2ccc(O)cc2)NC(=S)Nc2ccc(O)cc2)C(=O)OCc2c1cc1n(c2=O)Cc2cc3ccccc3nc2-1 (stereo partly drawn) [4.11), 20-O-[N^α,N^ε-bis-(4-Hydroxy-phenylamino-thiocarbonyl)-lysyl-phenylalanyl]-camptothecin] | 7.22 | 7.52 | 6.70 | – | – |
| CC[C@@]1(OC(=O)C(NC(=O)C(CCCCN)NC(=S)Nc2ccccc2O)C(C)C)C(=O)OCc2c1cc1n(c2=O)Cc2cc3ccccc3nc2-1 (stereo partly drawn) [4.13), 20-O-[N^α-(2-Hydroxy-phenylamino-thiocarbonyl)-lysyl-valyl]-camptothecin, hydrochloride] | 7.22 | 7.40 | 6.70 | – | – |
| CC[C@@]1(OC(=O)C(C)NC(=O)C(CCCCN)NC(=S)Nc2ccc(O)cc2)C(=O)OCc2c1cc1n(c2=O)Cc2cc3ccccc3nc2-1 (stereo partly drawn) [4.1), 20-O-[N^α-(4-Hydroxy-phenylamino-thiocarbonyl)-lysyl-alanyl]-camptothecin] | 8.00 | 7.70 | 7.00 | – | – |
| CC[C@@]1(OC(=O)[C@@H](NC(=O)[C@H](CCCCN)NC(=S)Nc2ccccc2)C(C)C)C(=O)OCc2c1cc1n(c2=O)Cc2cc3ccccc3nc2-1 [4.7), 20-O-[N^α-(Phenylamino-thiocarbonyl)-lysyl-valyl]-camptothecin, hydrochloride] | 7.00 | 7.22 | 6.52 | – | – |
| CCC1(OC(=O)[C@@H](C)NC(=O)C(CCCCNC(=S)Nc2ccc(O)cc2)NC(=S)Nc2ccc(O)cc2)C(=O)OCc2c1cc1n(c2=O)Cc2cc3ccccc3nc2-1 (stereo partly drawn) [4.10), 20-O-[N^α,N^ε-bis-(4-Hydroxy-phenylamino-thiocarbonyl)-lysyl-D-alanyl]-camptothecin] | 7.70 | 8.00 | 6.70 | – | – |
| CCC1(OC(=O)[C@@H](NC(=O)[C@H](CCCCN)NC(=S)Nc2ccc(OC)cc2)C(C)C)C(=O)OCc2c1cc1n(c2=O)Cc2cc3ccccc3nc2-1 (stereo partly drawn) [4.14), 20-O-[N^α-(4-Methoxy-phenylamino-thiocarbonyl)-lysyl-valyl]-camptothecin, hydrochloride] | 6.80 | 7.12 | 6.12 | – | – |
| CCc1c2c(nc3ccccc13)-c1cc3c(c(=O)n1C2)COC(=O)C3(CC)OC(=O)C(NC(=O)C(CCCCN)NC(=S)Nc1ccc(O)cc1)C(C)C (stereo not drawn) [5.2), 7-Ethyl-20-O-[N^α-(4-hydroxy-phenylamino-thiocarbonyl)-lysyl-valyl]-camptothecin, hydrochloride] | 6.30 | 6.52 | 6.05 | – | – |
| CC(NC(=S)Nc1ccc(O)cc1)C(=O)NC1C=CCC2CN(c3c(F)cc4c(=O)c(C(=O)O)cn(C5CC5)c4c3Cl)CC21 (racemic) [2.1), N-[N-(4-Hydroxy-phenylamino-thiocarbonyl)-alanyl]-quinolone-a] | 4.70 | 5.05 | 5.05 | – | – |
| C[C@@H](NC(=O)[C@H](CCCCN)NC(=S)Nc1ccc(O)cc1)C(=O)Nc1ccc2nc3n(c(=O)c2c1)Cc1ccccc1-3 [1.4), N-[N^α-(4-Hydroxy-phenylamino-thiocarbonyl)-lysyl-D-alanyl]-batracylin] | 4.40 | 4.40 | 4.52 | – | – |
| CCC1(OC(=O)C(NC(=O)C(CCCCN)NC(=S)Nc2cccc(OC)c2)C(C)C)C(=O)OCc2c1cc1n(c2=O)Cc2cc3ccccc3nc2-1 (stereo not drawn) [4.15), 20-O-[N^α-(3-Methoxy-phenylamino-thiocarbonyl)-lysyl-valyl]-camptothecin, hydrochloride] | 7.05 | 7.22 | 6.70 | – | – |
